Entries after “also recorded” stand apart in the source; their conditions may differ. Square brackets hold non-standard residues; d marks the D form. Peptide text beside a SMILES is read from it. * marks the point of attachment. Nle = CCCC[C@H](N)C(=O)O; Cbz = O=C(OCc1ccccc1)*
Columns and labels:
[1] = test system: T47D:C42 breast cancer cells; test: Cytotoxicity assay in T47D:C42 breast cancer cells; type: cell-based; details: T47D:C:4:2; T47D:C42 (p53 wild-type, ERα-negative); 48 h; read-out: IC50, cell growth inhibition
Description: Cytotoxicity and growth of transfected cells were estimated by a standard assay used for cancer drug screening, through the total amount of TCA-precipitated cell proteins after drug treatment (Likhitwitayawuid, K et al., 1993, J Nat Prod 56:30-38): 200 μl of cell suspension (10^5 cells/ml) were added to each well in a 96-well plate. After incubation at, 37° C., in 5% CO2 (30 minutes to 72 hours depending on the time course chosen), 50 μl 50% trichloroacetic acid was added to each well. After incubation at 4° C. for 1 hour, precipitates were washed with water 4-5 times and air dried overnight. One hundred μl of SRB solution (0.4% sulforhodamine B in 1% acetic acid, filtered before use) was added to each well for 30 minutes. Wells were washed with 1% acetic acid 4-5 times and air dried. Two hundred μl 10 mM Tris base was added to each well. Plates were shaken for 5-10 minutes and OD at 490 nm (OD490) was recorded via ELISA reader. To assay matrix invasion, 300 μl of cell suspension (10^6 cells/mL in serum-free medium) were added to invasion inserts (BioCoat Matrigel Invasion Chambers, Becton Dickinson, Bedford, Mass.) and incubated for 22 hours at 37° C., 5% CO2. Cells were stained with 0.9% crystal violet in 10% ethanol for 20 minutes. […] After removal of the non-invading cells from the interior of the inserts, stained invading cells were lysed in 10% acetic acid and OD595 was determined. […]

NOXA = test: Western blot of pro-apoptotic proteins in normal melanocytes treated with z-Leu-Leu-Nle-CHO; type: cell-based, human; details: data not shown
[2] = test system: cytochrome C and Smac/DLABLO; test: Mitochondrial integrity by Western blot in RJ002L melanoma cells; type: cell-based, human; details: 10 μM
Description: Western blot analyses following z-Leu-Leu-Nle-CHO and control treatment of RJ002L melanoma cells were performed to determine the effect of z-Leu-Leu-Nle-CHO on pro-survival and pro-apoptotic proteins. Whole cell extracts were prepared and analyzed as described by Denning, M. F. et al., 1998, J Biol Chem 273: 29995-30002, 1998. The enriched mitochondria pellet and mitochondria-free cytosol of melanoma cells were prepared with the APO ALERT cell fraction kit (Clontech Laboratories, Inc. Palo Alto, Calif.) according to the manufacturer's instructions. For Western blot analysis, equal amounts of protein extracted from each sample (20-30 μg) were loaded into pre-cast 7% NuPAGE Tris-acetate gels or 4-12% NuPAGE Bis-tris gels (Invitrogen). Proteins were separated by SDS-PAGE and transferred to polyvinylidene difluoride membranes (Bio-Rad, Hercules, Calif.) using Invitrogen's buffering system. The indicated primary antibodies were incubated for indicated period of time, washed, and visualized by incubation with horseradish peroxidase-conjugated secondary antibodies and chemiluminescent reagents (Roche Diagnostics Corporation, Indianapolis, Ind.). […]
Mitochondrial integrity before and after exposure to z-Leu-Leu-Nle-CHO was evaluated using Western blot analysis as described above.

normal human melanocytes = test: Apoptosis and cell cycle of normal human melanocytes treated with z-Leu-Leu-Nle-CHO; type: cell-based
Description: The effect of z-Leu-Leu-Nle-CHO on apoptosis was tested in vitro using normal human melanocytes and several melanoma cell cultures. Prior to testing, cutaneous (C8161, SK-MeI-28, SK-MeI-100, SK-MeI-5, C81-61), uveal or ocular (MUM2B, MUM2C, OCM-1A), and pulmonary metastases (RJ002L) melanoma cell lines were maintained in RPMI supplemented with 10% FBS. Normal human melanocytes were isolated from neonatal foreskins as previously described (Qin J et al., 2004, Mol Cancer Ther 3:895-902) and cultured with medium 154 containing growth supplements (Cascade Biologics, Portland, Oreg.).
To assess the effect of z-Leu-Leu-Nle-CHO on the cell lines, the cells were grown in suitable culture media. Highly proliferating cells (i.e., cells that had reached approximately 30% confluency) were exposed to z-Leu-Leu-Nle-CHO as described below. […]
Following treatment with z-Leu-Leu-Nle-CHO, the melanoma and melanocyte cell cultures were assayed for apoptotic cells using the APO TARGET Annexin V FITC staining kit (Biosource, Camarillo, Calif.) according to the manufacturer's instructions followed by flow cytometric analysis using FACScaliber (Becton Dickinson, Palo Alto, Calif.) as described in Qin, J. et al., 2001, Nat Med 7:385-386. In some cases, cell cycle and apoptosis analysis was measured using propidium iodide staining and flow cytometry as described. […]

For `CCCC[C@@H](C=O)NC(=O)[C@H](CC(C)C)NC(=O)[C@H](CC(C)C)NC(=O)OCc1ccccc1` [z-Leu-Leu-Nle-CHO, N-benzyloxycarbonyl-leucyl-leucyl-norleucinal] (Cbz-Leu-Leu-[Nle]-aldehyde), the IC50 [1] was 380 nM, the “induction of pro-apoptotic proteins (Bak, Bim, NOXA)” value (NOXA) was “did not induce any of the pro-apoptotic proteins; also recorded: did not induce NOXA in normal melanocytes” and the “release of cytochrome C and Smac/DLABLO from mitochondria” value [2] was “released into the cytoplasm of RJ002L melanoma cells as early as 1 hr”. For the same compound, the cell cycle effect (normal human melanocytes; 10 μM for 24 h) was “induce a G2/M growth arrest” and the induction of apoptosis (normal human melanocytes; MC004, MC007, 1-10 μM for 18 h) was “did not significantly induce apoptosis”.

Reference: patent publication US20080220416A1, “Compositions for Inhibiting Cell Growth and Inducing Apoptosis in Cancer Cells and Methods of Use Thereof” (THE BOARD OF TRUSTEES OF THE UNIVERSITY OF ILLINOI, priority 2004, published 2008)
